Common to all, as to format: biochemical
Experiment [1] deals with T1, NEP (Rattus norvegicus, UniProt P07861).
T1 sequence (P07861 1-750): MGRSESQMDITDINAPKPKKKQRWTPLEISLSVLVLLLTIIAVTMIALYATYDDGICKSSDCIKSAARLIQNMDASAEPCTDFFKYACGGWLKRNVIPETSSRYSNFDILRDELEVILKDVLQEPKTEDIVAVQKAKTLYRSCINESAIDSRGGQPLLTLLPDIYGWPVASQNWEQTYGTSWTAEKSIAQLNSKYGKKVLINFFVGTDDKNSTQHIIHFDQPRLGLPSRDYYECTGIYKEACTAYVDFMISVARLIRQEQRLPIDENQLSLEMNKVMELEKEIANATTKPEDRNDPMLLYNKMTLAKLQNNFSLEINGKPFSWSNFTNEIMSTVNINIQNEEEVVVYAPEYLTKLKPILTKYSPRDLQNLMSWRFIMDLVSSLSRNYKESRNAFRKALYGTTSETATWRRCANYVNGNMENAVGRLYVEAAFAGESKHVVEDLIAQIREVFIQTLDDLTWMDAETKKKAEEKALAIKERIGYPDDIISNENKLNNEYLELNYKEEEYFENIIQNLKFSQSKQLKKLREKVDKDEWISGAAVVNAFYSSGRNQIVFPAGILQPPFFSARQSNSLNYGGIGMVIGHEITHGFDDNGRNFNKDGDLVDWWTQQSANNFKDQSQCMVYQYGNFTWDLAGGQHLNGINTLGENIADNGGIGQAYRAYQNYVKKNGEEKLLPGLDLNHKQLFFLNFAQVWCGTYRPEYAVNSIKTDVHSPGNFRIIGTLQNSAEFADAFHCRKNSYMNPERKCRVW
Briefly: NEP inhibition activity (Experiment F-1). Further details: membrane fraction prepared from rat renal cortex; from tissue; host or cells: rat renal cortex, membrane fraction (method of Booth and Kenny). The following applies: rat renal cortex membrane fraction. As for the experimental part: As a source of the enzyme NEP, a membrane fraction prepared from rat renal cortex in accordance with the method of Booth and Kenny (A Rapid Method for the Purification of Microvilli from Rabbit Kidney., Andrew G. Booth and A. John Kenny, Biochem. j., 1974, 142, 575-581.) was employed. The NEP activity was determined in accordance with the method of Orlowsky and Wilk (Purification and Specificity of a Membrane-Bound Metalloendpeptidase from Bovine Pituitaries., Marian Orlowsky and Shrwin Wilk, Biochemistry, 1981, 20, 4942-4950.). Now the procedure will be briefly described.
(§1) As a substrate, benzoyl-glycyl-arginyl-arginyl-2-naphthylamide (benzoyl-Gly-Arg-Arg-2-naphthylamide (Nova Biochem, Switzerland)) was used. In the presence of an NEP enzyme preparation and excessive leucine aminopeptidase (sigma chemical Co., U.S.A.), the liberated naphthylamine was made to undergo color development with first garnet (Sigma chemical Co., U.S.A.), followed by the measurement of the absorbance at a wavelength of 540 nm.
(§2) With respect to the NEP inhibition activity and the ACE inhibition activity, the inhibitor was added to the assay systems of both enzyme activities as described above in such a manner as to give the final concentrations of 1, 3, 10, 30, 100, 300 and 1000 inhibition curves were prepared, and then the concentration at which 50% inhibition was achieved was taken as IC50.

The target of experiment [2] is T2, ACE (Rattus norvegicus, UniProt P47820).
T2 construct: membrane fraction prepared from rat lung; from tissue; host or cells: rat lung, membrane fraction (method of Wu-Wong et al.)
T2 sequence (P47820 36-1313): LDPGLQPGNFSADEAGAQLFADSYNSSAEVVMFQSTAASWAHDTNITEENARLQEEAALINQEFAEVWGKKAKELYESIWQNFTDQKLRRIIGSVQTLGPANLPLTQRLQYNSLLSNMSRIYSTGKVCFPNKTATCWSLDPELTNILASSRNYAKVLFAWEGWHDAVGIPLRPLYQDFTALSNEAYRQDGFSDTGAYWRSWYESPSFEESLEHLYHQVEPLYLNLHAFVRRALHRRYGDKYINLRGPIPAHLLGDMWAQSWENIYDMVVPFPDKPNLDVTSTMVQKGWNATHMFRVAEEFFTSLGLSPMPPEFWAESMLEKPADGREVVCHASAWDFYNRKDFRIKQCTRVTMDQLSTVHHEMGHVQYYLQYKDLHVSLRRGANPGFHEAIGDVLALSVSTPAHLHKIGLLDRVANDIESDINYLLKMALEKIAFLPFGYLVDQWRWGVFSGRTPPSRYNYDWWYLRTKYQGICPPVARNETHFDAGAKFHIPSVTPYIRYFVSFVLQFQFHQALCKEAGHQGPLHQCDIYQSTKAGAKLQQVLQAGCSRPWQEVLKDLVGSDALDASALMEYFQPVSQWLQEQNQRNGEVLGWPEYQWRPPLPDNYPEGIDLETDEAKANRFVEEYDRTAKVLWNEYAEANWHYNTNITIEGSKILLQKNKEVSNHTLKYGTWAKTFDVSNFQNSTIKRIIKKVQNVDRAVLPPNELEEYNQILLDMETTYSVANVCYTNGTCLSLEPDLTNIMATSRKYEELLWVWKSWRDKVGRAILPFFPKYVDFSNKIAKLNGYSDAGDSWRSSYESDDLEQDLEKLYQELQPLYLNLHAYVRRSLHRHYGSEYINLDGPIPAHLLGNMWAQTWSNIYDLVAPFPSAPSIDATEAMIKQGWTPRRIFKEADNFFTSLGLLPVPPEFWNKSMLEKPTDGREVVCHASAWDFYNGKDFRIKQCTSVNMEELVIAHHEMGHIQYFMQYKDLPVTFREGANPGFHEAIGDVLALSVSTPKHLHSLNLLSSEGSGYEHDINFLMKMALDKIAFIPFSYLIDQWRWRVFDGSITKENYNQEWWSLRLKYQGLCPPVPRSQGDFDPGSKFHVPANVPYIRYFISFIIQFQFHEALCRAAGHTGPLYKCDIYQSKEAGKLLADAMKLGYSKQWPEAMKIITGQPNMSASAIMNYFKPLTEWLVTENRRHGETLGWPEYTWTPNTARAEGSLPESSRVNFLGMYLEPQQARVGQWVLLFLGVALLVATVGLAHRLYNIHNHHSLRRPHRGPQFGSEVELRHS
Briefly: ACE inhibition activity (Experiment F-1). The following applies: rat lung membrane fraction, pH 8.3. As for the experimental part: As a source of the enzyme ACE, a membrane fraction prepared from rat lung in accordance with the method of Wu-Wong et al. (Characterization of Endthelin Converting Enzyme in Rat Lung., Jinshyum R. Wu-Wong, Gerald P. Budzik, Edward M, Devine and Terry J. Opgenorth, Biochem. Biophys. Res. Commun., 1990, 171, 1291-1296.) was used. The ACE activity was determined with the use of a modification (modified to a borate buffer pH 8.3) of the method of Cushman and Cheung (Spectrophotometric Assay and Properties of the Angiotensin-Converting Enzyme of Rabbit Lung., Cushman D. W. and Cheung H. S., 1971, 20, 1637-1648.). Now the procedure will be briefly described.
In the presence of ACE, the hippurate liberated from hippuryl-histidyl-leucine (Hippuryl-His-Leu (Peptide Institute Inc., Japan)) was extracted with ethyl acetate and then the absorbance was measured at a wavelength of 228 nm.
as §2

In experiment [3] the target is T2, ACE. Briefly: ACE inhibition activity using rat lung (Experiment C-2). The following applies: Table C-1; rat lung membrane fraction, borate buffer pH 8.3. How it is done: The ACE inhibition activity was determined by using a membrane fraction prepared from rat lung in accordance with the method of Wu-Wong et al. (Characterization of Endthelin Converting Enzyme in Rat Lung., Junshyum R. Wu-Wong, Gerald P. Budzik, Edward M. Devine and Terry J. Opgenorth, Biochem. Biophys. Res. Commun., 1990, 171, 1291-1296.).
The ACE activity was determined with the use of a modification (modified to a borate buffer, pH 8.3) of the method of Cushman and Cheung (Spectrophotometric Assay and Properties of the Angiotensin-Converting Enzyme of Rabbit Lung., Cushman D. W. and Cheung H. S., 1971, 20, 1637-1648.).
In the presence of ACE, the hippurate liberated from hippuryl-histidyl-leucine (Hippuryl-His-Leu (PeptideInstitute Inc., Japan)) was extracted with ethyl acetate and then the absorbance was measured at a wavelength of 228 nm.
With respect to the ACE inhibition activity, the test compound was added to the reaction system as described above in such a manner as to give the final concentrations of 1, 3, 10, 30, 100, 300 and 1000 nM, an inhibition curve was prepared, and then the concentration at which 50% inhibition was achieved was taken as IC50. As a comparative compound, [4S-[4α,7α(R*),12bβ]]-7-[(1-oxo-2-(S)-thio-3-phenyl-propyl)amino]-1,2,3,4,6,7,8,12b-octahydro-6-oxopyrido-[2,1-a][2]benzazepine-4-carboxylic acid was used.

Experiment [4] concerns the target T1, NEP. Briefly: NEP inhibition activity (Experiment C-1). The note with it: Table C-1. As for the experimental part:
The NEP activity was determined by the following manner in accordance with the method of Orlowsky and Wilk (Purification and Specificity of a Membrane-Bound Metalloendpeptidase from Bovine Pituitaries., Marian Orlowsky and Shrwin Wilk, Biochemistry, 1981, 20, 4942-4950.).
as §1
With respect to the NEP inhibition activity, the test compound was added to the experimental system as described above in such a manner as to give the final concentrations of 1, 3, 10, 30, 100, 300 and 1000 nM, an inhibition curve was prepared, and then the concentration at which 50% inhibition was achieved was taken as IC50. As a comparative compound, [4S-[4α,7α(R*),12bβ]]-7-[(1-oxo-2-(S)-thio-3-phenyl-propyl)amino]-1,2,3,4,6,7,8,12b-octahydro-6-oxopyrido-[2,1-a][2]benzazepine-4-carboxylic acid was used.

One may read the IC50 as the point on the concentration scale where inhibition reaches its midpoint. A higher IC50 goes with a need for much substance.

Regarding `O=C(O)CNC(=O)[C@@H](CS)Cc1ccc2c(c1)OCO2` [Comp cpd. F-1, N[1oxo-2(S)-mercaptomethyl-3-(3,4-methylenedioxy-phenyl)propyl]glycine, reference compound], the half-maximal inhibitory concentration (IC50) came to 0.0171 µM in experiment [1] and 0.048 µM in experiment [2].
In the case of `CC[C@H](C)[C@H](S)C(=O)N[C@H]1CSc2ccccc2N(CC(=O)O)C1=O` [Example C-12, (R)-3-[[(2S,3S)-3-Methyl-1-oxo-2-thiopentyl]amino]-5-carboxymethyl-2,3-dihydro-1,5-benzothiazepin-4(5H)-one], the IC50 in experiment [3] came to 0.0125 µM; in experiment [4], 0.0151 µM.
For the molecule `O=C(N[C@H]1CCC[C@H]2SC[C@@H](C(=O)O)N2C1=O)[C@@H](S)Cc1ccc(F)cc1` [Example F-14, [3R-[3α,6α(S*),9aβ]]-6[[(S)-1-Oxo-2-thio-3-(4-fluorophenyl)propyl]amino]-octahydro-5-oxothiazol [3,2-a]azepine-3-carboxylic acid], the IC50 in experiment [1] was determined as 0.0225 µM; in experiment [2], 0.0077 µM.
The matching figures for `O=C(N[C@H]1CCC[C@H]2SC[C@@H](C(=O)O)N2C1=O)[C@@H](CS)Cc1ccccc1` [Example F-18, [3R-[3α,6α(S*),9aβ]]-6-[[(S)-1-Oxo-2-thiomethyl-3-phenylpropyl]amino]-octahydro-5-oxothiazol[3,2-a]-azepine-3-carboxylic acid]: 0.0056 µM and 0.007 µM.
The matching figures for `COc1ccc(C[C@H](S)C(=O)N[C@H]2CCC[C@H]3SC[C@@H](C(=O)O)N3C2=O)cc1` [Example F-19, [3R-[3α,6α(S*),9aβ]]-6-[[(S)-1-Oxo-2-thio-3-(4-methoxyphenyl)propyl]amino]-octahydro-5-oxothiazol-[3,2-a]azepine-3-carboxylic acid]: 0.104 µM and 0.0135 µM.
For the molecule `O=C(N[C@H]1CCC[C@H]2SC[C@@H](C(=O)O)N2C1=O)[C@@H](S)Cc1ccc(-c2ccccc2)cc1` [Example F-20, [3R-[3α,6α(S*),9aβ]]-6-[[(S)-1-Oxo-2-thio-3-(1,4-biphenyl)propyl]amino]-octahydro-5-oxothiazol[3,2-a]azepine3-carboxylic acid], the IC50 in experiment [1] amounted to 0.0565 µM; in experiment [2], 0.016 µM.
The matching figures for `O=C(N[C@H]1CCC[C@H]2SC[C@@H](C(=O)O)N2C1=O)[C@@H](S)Cc1cccs1` [Example F-22, [3R-[3α,6α(S*),9aβ]]-6-[[(S)-1-Oxo-2-thio-3-(2-thienyl)propyl]amino]-octahydro-5-oxothiazol-[3,2-a]azepine-3-carboxylic acid]: 0.009 µM and 0.013 µM.
In the case of `CC[C@@H](C)[C@H](S)C(=O)N[C@H]1CCC[C@H]2SC[C@@H](C(=O)O)N2C1=O` [Example F-23, [3R-[3α,6α(S*),9aβ]]-6-[[(S, 3R)-1-Oxo-2-thio-3-methylpentylamino]-octahydro-5-oxothiazol-[3,2-a]azepine-3-carboxylic acid], the IC50 is 0.12 µM in experiment [1] and 0.008 µM in experiment [2].
`CC[C@H](S)C(=O)N[C@H]1CCC[C@H]2SC[C@@H](C(=O)O)N2C1=O` [Example F-24, [3R-[3α,6α(S*),9aβ]]-6-[(S)-1-Oxo-2-thiobutylamino]-octahydro-5-oxothiazol[3,2-a]azepine-3-carboxylic acid]: the concentration for half-maximal inhibition (IC50) in experiment [1] was 0.008 µM; in experiment [2], 0.013 µM.
With `CC(C)[C@H](S)C(=O)N[C@H]1CCC[C@H]2SC[C@@H](C(=O)O)N2C1=O` [Example F-25, [3R-[3α,6α(S*),9aβ]]-6-[(S)-1-Oxo-2-thio-3-methylbutylamino]-octahydro-5-oxothiazol[3,2-a]azepine-3-carboxylic acid], the results for the IC50 in experiment [1] and in experiment [2] were 0.265 µM and 0.009 µM, respectively.

The record behind these values is patent US5679671A, “Amino acid derivative” (Eisai Co., Ltd., priority 1993, dated 1997).
